From patent US9376436B2, “2-(pyridin-2yl)-1, 7-diaza-spiro [4.4] nonane-6-one compound as voltage-gated sodium channels modulators” (CONVERGENCE PHARMACEUTICALS LIMITED, priority 2011, dated 2016)
Where a name gives a salt, the structure may show the parent alone. Read-outs that look alike come from different tables or passages of the source.

Target: T1, hNaV1.7 (Homo sapiens, UniProt Q15858)
T1 construct: expressed in transfected cells; host or cells: HEK293
Test: QPatch NaV1.7 assay (whole-cell patch clamp, QPatch16x)
Assay type: cell-based
Conditions: HEK293-hNaV1.7 cells
Experimental: The compounds of the invention were tested in a QPatch NaV1.7 assay.
HEK293-hNaV1.7 cells were grown in DMEM-F12+10% FBS culture media at 37° C. At a confluency of 50-70% cells were dissociated from culture flasks & triturated to ensure unicellular cell suspension; cell density was measured & adjusted to 2-3×10^6 cells/ml. Recordings were obtained using QPatch16x. The external solution was (in mM): NaCl, 128; KCl, 5; MgCl2, 2; CaCl2, 2; Glucose, 30; HEPES, 15; pH 7.3, 305-315 mOsm. Following seal formation and whole-cell access using internal solution (containing in mM: CsF, 135; EGTA/CsOH, 1/5; HEPES 10; NaCl, 10; pH 7.3, 310-320 mOsM), voltage pulse protocols were applied. Initially a steady state inactivation voltage protocol was used to determine the half-maximal voltage for steady state inactivation (V1/2 SSI). Two holding voltages were used to determine test drug inhibition: −90 mV, where most of the channels are in a closed state; and V1/2 SSI, where half of the channels are inactivated. Currents were elicited […] by stepping to a membrane potential of 0 mV for 20 ms. Four-point cumulative concentration responses were derived by determining the peak current amplitude at each concentration of test drug over 120 second application. Curves were fitted with the Hill equation yielding pIC50 values at −90 mV and V1/2 SSI holding potentials.

[1] = holding voltage V1/2 SSI (half of channels inactivated), read-out: QP Nav1.7 SSI vhalf pIC50 (converted)
[2] = holding voltage −90 mV (most channels closed), read-out: QP Nav1.7 −90 mV pIC50 (converted)

T1 sequence (Q15858 whole entry): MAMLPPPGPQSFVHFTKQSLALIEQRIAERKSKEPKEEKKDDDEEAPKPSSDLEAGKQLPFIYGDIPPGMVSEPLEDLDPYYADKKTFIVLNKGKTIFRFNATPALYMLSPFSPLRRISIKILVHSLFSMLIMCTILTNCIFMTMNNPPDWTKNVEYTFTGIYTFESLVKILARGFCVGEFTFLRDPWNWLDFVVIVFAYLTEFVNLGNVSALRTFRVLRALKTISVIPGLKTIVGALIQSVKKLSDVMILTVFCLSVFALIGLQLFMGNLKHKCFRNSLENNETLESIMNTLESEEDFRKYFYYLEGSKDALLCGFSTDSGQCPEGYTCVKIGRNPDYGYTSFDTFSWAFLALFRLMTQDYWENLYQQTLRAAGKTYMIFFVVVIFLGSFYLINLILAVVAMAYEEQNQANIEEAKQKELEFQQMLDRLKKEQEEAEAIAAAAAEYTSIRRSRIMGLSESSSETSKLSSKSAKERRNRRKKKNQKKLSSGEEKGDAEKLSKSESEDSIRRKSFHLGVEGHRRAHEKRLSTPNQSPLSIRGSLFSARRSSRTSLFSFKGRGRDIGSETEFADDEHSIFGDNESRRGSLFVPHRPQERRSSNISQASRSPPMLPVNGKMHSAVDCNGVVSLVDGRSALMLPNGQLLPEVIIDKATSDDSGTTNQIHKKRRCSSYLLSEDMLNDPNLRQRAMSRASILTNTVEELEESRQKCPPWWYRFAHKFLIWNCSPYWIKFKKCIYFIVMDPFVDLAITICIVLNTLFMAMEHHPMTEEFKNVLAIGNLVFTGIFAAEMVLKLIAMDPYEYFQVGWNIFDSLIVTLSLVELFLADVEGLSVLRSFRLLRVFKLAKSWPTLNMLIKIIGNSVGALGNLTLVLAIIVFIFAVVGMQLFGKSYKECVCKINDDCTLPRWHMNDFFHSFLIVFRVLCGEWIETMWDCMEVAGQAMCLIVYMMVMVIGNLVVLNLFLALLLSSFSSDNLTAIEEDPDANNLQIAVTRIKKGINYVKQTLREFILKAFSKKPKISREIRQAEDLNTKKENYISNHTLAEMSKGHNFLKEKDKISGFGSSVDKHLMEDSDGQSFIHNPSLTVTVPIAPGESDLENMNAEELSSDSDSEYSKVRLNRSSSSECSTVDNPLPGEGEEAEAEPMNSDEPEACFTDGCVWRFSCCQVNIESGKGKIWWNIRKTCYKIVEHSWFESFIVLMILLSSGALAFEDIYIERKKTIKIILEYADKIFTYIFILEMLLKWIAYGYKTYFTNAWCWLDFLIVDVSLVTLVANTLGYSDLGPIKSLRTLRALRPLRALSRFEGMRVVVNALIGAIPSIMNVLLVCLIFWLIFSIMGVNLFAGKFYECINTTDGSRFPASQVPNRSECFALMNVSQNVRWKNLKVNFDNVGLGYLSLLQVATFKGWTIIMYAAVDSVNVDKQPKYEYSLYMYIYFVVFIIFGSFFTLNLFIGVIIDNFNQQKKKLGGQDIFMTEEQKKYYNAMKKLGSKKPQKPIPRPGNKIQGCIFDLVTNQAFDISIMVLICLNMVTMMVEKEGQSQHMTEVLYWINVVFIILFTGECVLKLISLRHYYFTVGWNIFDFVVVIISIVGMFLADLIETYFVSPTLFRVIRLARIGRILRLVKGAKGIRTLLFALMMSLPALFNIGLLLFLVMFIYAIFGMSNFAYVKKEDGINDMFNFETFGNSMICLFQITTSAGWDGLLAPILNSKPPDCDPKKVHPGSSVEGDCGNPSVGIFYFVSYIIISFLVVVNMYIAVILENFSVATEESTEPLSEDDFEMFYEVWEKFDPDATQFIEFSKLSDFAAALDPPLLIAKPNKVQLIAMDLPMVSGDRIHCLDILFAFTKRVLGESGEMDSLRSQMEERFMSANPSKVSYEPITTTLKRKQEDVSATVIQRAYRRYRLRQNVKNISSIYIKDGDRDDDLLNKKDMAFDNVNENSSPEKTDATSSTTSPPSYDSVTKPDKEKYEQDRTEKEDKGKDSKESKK

SMILES	IC50 [1] [µM]	IC50 [2] [µM]	QP Nav1.7 SSI vhalf pIC50 (holding voltage V1/2 SSI (half of channels inactivated))
CN1CC[C@@]2(CC(F)(F)C(c3cc(-c4ccc(C(F)(F)F)cc4)ccn3)N2)C1=O (mixture of isomers) [Example 240, (5R)-3,3-Difluoro-7-methyl-2-[4-[4-(trifluoromethyl)phenyl]-2-pyridyl]-1,7-diazaspiro[4.4]nonan-6-one hydrochloride]	1.58	31.6	
CCOc1ccc(F)c(-c2cc(C)nc(C3CCC4(CCN(C)C4=O)N3)c2C)c1 (mixture of isomers) [Example 256, 2-[4-(5-Ethoxy-2-fluoro-phenyl)-3,6-dimethyl-2-pyridyl]-7-methyl-1,7-diazaspiro[4.4]nonan-6-one hydrochloride]	2.51	20	
CN1CC[C@@]2(CC(F)C(c3cc(-c4ccc(C(F)(F)F)cc4)ccn3)N2)C1=O (single isomer, unassigned) [Example 238, hydrochloride]	2	50.1	
CN1CC[C@@]2(CC(F)C(c3cc(-c4ccc(C(F)(F)F)cc4)ccn3)N2)C1=O (single isomer, unassigned) [Example 239]	15.8	251	
CCOc1ccc(F)c(-c2cc(OC)nc([C@H]3CC[C@]4(CCN(C)C4=O)N3)c2)c1 (single isomer, unassigned) [Example 247, hydrochloride]	1.26	20	
CCOc1ccc(F)c(-c2cc(OC)nc([C@@H]3CC[C@]4(CCN(C)C4=O)N3)c2)c1 (single isomer, unassigned) [Example 248]	5.01	31.6	
Cc1cc(C)c(-c2ccnc([C@H]3CC[C@@]4(CCN(C)C4=O)N3)c2)c(C)c1 [Example 2, (2R,5S)-7-Methyl-2-[4-(2,4,6-trimethylphenyl)-2-pyridyl]-1,7-diazaspiro-[4.4]nonan-6-one hydrochloride]	20	200	
CN1CC[C@@]2(CC[C@H](c3cc(-c4ccccc4OC(F)(F)F)ccn3)N2)C1=O [Example 3, (2R,5S)-7-Methyl-2-[4-[2-(trifluoromethoxy)-phenyl]-2-pyridyl]-1,7-diazaspiro-[4.4]nonan-6-one hydrochloride]	7.94	63.1	
CN1CC[C@@]2(CC[C@H](c3cc(-c4ccccc4C(F)(F)F)ccn3)N2)C1=O [Example 7, (2R,5S)-7-Methyl-2-[4-[2-(trifluoro-methyl)phenyl]-2-pyridyl]-1,7-diazaspiro[4.4]nonan-6-one hydrochloride]	31.6	100	
Cc1c(-c2ccc(C(F)(F)F)cc2)ccnc1[C@H]1CC[C@]2(CCN(C)C2=O)N1 [Example 14, (2R,5R)-7-Methyl-2-[3-methyl-4-[4-(trifluoromethyl)phenyl]-2-pyridyl]-1,7-diazaspiro[4.4]nonan-6-one hydrochloride]	10	63.1	
Cc1c(-c2ccc(C(F)(F)F)cc2)ccnc1[C@@H]1CC[C@]2(CCN(C)C2=O)N1 [Example 15, (2S,5R)-7-Methyl-2-[3-methyl-4-[4-(trifluoromethyl)phenyl]-2-pyridyl]-1,7-diazaspiro[4.4]nonan-6-one hydrochloride]	6.31	25.1	
Cc1c(-c2ccc(C(F)(F)F)cc2)ccnc1[C@@H]1CC[C@@]2(CCN(C)C2=O)N1 [Example 16, (2S,5S)-7-Methyl-2-[3-methyl-4-[4-(trifluoromethyl)phenyl]-2-pyridyl]-1,7-diazaspiro[4.4]nonan-6-one hydrochloride]	12.6	100	
Cc1c(-c2ccc(C(F)(F)F)cc2)ccnc1[C@H]1CC[C@@]2(CCN(C)C2=O)N1 [Example 17, (2R,5S)-7-Methyl-2-[3-methyl-4-[4-(trifluoromethyl)phenyl]-2-pyridyl]-1,7-diazaspiro[4.4]nonan-6-one hydrochloride]	3.16	20	
Cc1c(-c2ccc(F)cc2)ccnc1[C@@H]1CC[C@]2(CCN(C)C2=O)N1 [Example 18, (2S,5R)-7-Methyl-2-[3-methyl-4-[4-fluorophenyl]-2-pyridyl]-1,7-diazaspiro[4.4]nonan-6-one hydrochloride]	31.6	794	

Continued, values first:

IC50 [1] [µM]	IC50 [2] [µM]	QP Nav1.7 SSI vhalf pIC50 (holding voltage V1/2 SSI (half of channels inactivated))	SMILES
		5.5	CN1CC[C@@]2(CC[C@H](c3cc(-c4cccc(OC(F)(F)F)c4)ccn3)N2)C1=O.Cl [Example 1, (2R,5S)-7-Methyl-2-[4-[3-(trifluoromethoxy)phenyl]-2-pyridyl]-1,7-diazaspiro[4.4]nonan-6-one hydrochloride]
12.6	200		CCOc1ccc(F)cc1-c1ccnc([C@H]2CC[C@@]3(CCN(C)C3=O)N2)c1 [Example 4, (2R,5S)-2-[4-(2-Ethoxy-5-fluoro-phenyl)-pyridin-2-yl]-7-methyl-1,7-diaza-spiro[4.4]nonan-6-one hydrochloride]
3.98	25.1		CN1CC[C@@]2(CC[C@H](c3cc(-c4ccc(OC(F)(F)F)cc4)ccn3)N2)C1=O [Example 5, (2R,5S)-7-Methyl-2-[4-(4-trifluoro-methoxy-phenyl)-pyridin-2-yl]-1,7-diaza-spiro[4.4]nonan-6-one hydrochloride]
31.6	158		CN1CC[C@@]2(CC[C@H](c3cc(-c4ccccc4)ccn3)N2)C1=O [Example 6, (2R,5S)-7-Methyl-2-(4-phenyl-pyridin-2-yl)-1,7-diaza-spiro[4.4]nonan-6-one hydrochloride]
0.794	10		CCOc1ccc(F)c(-c2ccnc([C@H]3CC[C@@]4(CCN(C)C4=O)N3)c2)c1 [Example 8, (2R,5S)-2-[4-(5-Ethoxy-2-fluoro-phenyl)-2-pyridyl]-7-methyl-1,7-diazaspiro[4.4]nonan-6-one hydrochloride]
63.1	1000		CN1CC[C@@]2(CC[C@H](c3cc(-c4ccc(F)cc4F)ccn3)N2)C1=O [Example 9, (2R,5S)-2-[4-(2,4-Difluorophenyl)-2-pyridyl]-7-methyl-1,7-diazaspiro[4.4]nonan-6-one hydrochloride]
50.1	3980		COc1ccc(F)cc1-c1ccnc([C@H]2CC[C@@]3(CCN(C)C3=O)N2)c1 [Example 10, (2R,5S)-2-[4-(5-Fluoro-2-methoxy-phenyl)-2-pyridyl]-7-methyl-1,7-diazaspiro[4.4]nonan-6-one hydrochloride]
25.1	200		CN1CC[C@@]2(CC[C@H](c3cc(-c4ccc(F)c(F)c4)ccn3)N2)C1=O [Example 11, (2R,5S)-2-[4-(3,4-Difluorophenyl)-2-pyridyl]-7-methyl-1,7-diazaspiro[4.4]nonan-6-one hydrochloride]
10	50.1		CN1CC[C@@]2(CC[C@H](c3cc(-c4ccc(C(F)(F)F)cc4F)ccn3)N2)C1=O [Example 12, (2R,5S)-2-[4-[2-Fluoro-4-(trifluoromethyl)phenyl]-2-pyridyl]-7-methyl-1,7-diazaspiro[4.4]nonan-6-one hydrochloride]
6.31	25.1		CN1CC[C@@]2(CC[C@H](c3cc(-c4ccc(Cl)cc4)ccn3)N2)C1=O [Example 13, (2R,5S)-2-[4-(4-Chlorophenyl)-2-pyridyl]-7-methyl-1,7-diazaspiro[4.4]nonan-6-one hydrochloride]
